The term IC50 denotes the concentration at which inhibition is half-maximal. One may read the AUC(0-t) as the area under the concentration-time curve up to a stated or last time point. A higher AUC(0-t) goes with high exposure. In general, clearance refers to a measure of how efficiently the substance is removed, as volume per time. Read a high clearance as a high capacity for elimination. One may read the half-life as the time needed for the level to fall by half in the phase considered. A high value points to slow decline. One may read the Papp A→B as the apparent permeability from the apical to the basolateral side of a cell layer. High values mean ready permeation, low ones poor permeation. One may read the Papp B→A as the apparent permeability from the basolateral to the apical side of a cell layer.

In the first series the target is T1, Recombinant human PARP1 protein (Homo sapiens, UniProt P09874). The series is described as follows: PARP1 enzymatic inhibitory activity, histone substrate, chemiluminescent ELISA. The following applies: PARP2 IC50 over PARP1 IC50. In general terms: An ELISA detects its analyte on a solid surface through an enzyme-linked reagent.
T1 sequence (P09874 whole entry): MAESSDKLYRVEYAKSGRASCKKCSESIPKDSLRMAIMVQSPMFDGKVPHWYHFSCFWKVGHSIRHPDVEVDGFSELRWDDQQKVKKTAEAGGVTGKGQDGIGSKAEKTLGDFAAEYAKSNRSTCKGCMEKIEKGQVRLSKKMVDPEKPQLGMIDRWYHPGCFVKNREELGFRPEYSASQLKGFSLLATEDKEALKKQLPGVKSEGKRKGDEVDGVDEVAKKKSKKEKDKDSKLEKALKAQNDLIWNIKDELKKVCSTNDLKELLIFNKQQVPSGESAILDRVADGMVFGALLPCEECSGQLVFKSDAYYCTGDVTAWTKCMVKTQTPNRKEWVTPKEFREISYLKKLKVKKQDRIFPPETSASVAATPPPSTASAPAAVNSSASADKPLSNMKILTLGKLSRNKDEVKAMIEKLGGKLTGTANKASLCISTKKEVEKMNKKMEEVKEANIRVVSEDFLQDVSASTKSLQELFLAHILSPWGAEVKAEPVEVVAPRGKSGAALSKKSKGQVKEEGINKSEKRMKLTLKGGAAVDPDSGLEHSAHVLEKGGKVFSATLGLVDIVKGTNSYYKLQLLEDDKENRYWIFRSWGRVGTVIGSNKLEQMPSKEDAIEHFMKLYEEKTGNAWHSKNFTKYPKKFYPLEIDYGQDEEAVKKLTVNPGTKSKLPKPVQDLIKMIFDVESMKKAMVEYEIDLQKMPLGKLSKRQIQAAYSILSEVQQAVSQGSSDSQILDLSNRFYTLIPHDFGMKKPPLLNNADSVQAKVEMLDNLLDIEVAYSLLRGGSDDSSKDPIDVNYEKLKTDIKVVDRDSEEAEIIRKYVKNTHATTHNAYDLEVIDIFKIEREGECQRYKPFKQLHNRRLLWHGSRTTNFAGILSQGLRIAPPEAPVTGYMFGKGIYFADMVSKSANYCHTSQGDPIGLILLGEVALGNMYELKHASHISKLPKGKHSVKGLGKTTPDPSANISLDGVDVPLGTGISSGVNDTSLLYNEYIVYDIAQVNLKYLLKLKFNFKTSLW
Protocol: The PARP1/2 inhibitory activity of the compounds of the present invention was tested in an assay using Histone as a substrate.
Aim of the assay: to test the PARP1/2 enzymatic activity inhibition IC50 values of the compounds of the present application according to established experimental methods.
1. Compound Configuration: Dilute the compounds with DMSO in 384-well plates to a 1000-fold final concentration and set aside.
1) Dilute Histone with PBS, add 25uL of Histone mixture to each well and incubate for 2 h. 2) Wash each well 5 times using PBST solution. Remove the solution with a clean paper towel.3) Add 75 uL of Blocking buffer to each well and incubate for 1 h at rt. 4) Wash each well 5 times using PBST solution. Remove the solution with a clean paper towel.
2) Use 1× Assay buffer to prepare 2.5× final concentration of PARP1 solution. 3) Add 10 uL of enzyme solution to the compound wells and Max control wells; add 10 uL of 1× Assay buffer. […] 6) Centrifuge at 1000 rpm for 60 seconds and incubate at rt for 2 h. 7) Each well was washed 5 times with PBST solution. Remove the solution with a clean paper towel.
1) Prepare Streptavidin-HRP solution, add 25 µL to each well, centrifuge at 1000 rpm for 60 sec, and incubate at rt for 30 min. 2) Wash each well 5 times using PBST solution. Remove the solution with a clean paper towel. 3) Add 50 µL of ELISA Chemiluminescent Substrate per well. 4) Centrifuge at 1000 rpm for 60 seconds and read with EnSight after 5 min.
The inhibition rate was calculated using the following formula: % inhibition = (max signal - compound signal) / (max signal - min signal) × 100, where 'min signal' is the mean value of negative control wells and 'max signal' is the mean value of positive control wells.
Fitting the quantitative effect curve: using the log value of the concentration as the X-axis and the percentage inhibition as the Y-axis; using the log(inhibitor) vs. response-variable slope method in software GraphPadPrism5 to fit the quantitative effect curve to calculate the IC50 value for the inhibition of the enzyme activity by the compounds of the present invention. The fitting formula is: Y=Bottom+ (Top-Bottom)/(1+10^((logIC50-X)*HillSlope)).
For the compound `CNC(=O)c1ccc(N2CCN(Cc3ccc4c(c3F)NC(=O)N3C[C@@H](C)N=C43)CC2)c(F)n1` [Compound 132], the “PARP1/2 Fold selectivity” value was 191.8.
Same read-out and setting: with `CNC(=O)c1ccc(N2CCN(Cc3ccc4c(c3F)NC(=O)N3C[C@@H](C)N=C43)CC2)c(Cl)n1` [Compound 154] the figure was 706.9.

In another series the target is T2, recombinant human PARP2 protein (Homo sapiens, UniProt Q9UGN5).
T2 construct: purchased BPS 80502
T2 sequence (Q9UGN5 whole entry): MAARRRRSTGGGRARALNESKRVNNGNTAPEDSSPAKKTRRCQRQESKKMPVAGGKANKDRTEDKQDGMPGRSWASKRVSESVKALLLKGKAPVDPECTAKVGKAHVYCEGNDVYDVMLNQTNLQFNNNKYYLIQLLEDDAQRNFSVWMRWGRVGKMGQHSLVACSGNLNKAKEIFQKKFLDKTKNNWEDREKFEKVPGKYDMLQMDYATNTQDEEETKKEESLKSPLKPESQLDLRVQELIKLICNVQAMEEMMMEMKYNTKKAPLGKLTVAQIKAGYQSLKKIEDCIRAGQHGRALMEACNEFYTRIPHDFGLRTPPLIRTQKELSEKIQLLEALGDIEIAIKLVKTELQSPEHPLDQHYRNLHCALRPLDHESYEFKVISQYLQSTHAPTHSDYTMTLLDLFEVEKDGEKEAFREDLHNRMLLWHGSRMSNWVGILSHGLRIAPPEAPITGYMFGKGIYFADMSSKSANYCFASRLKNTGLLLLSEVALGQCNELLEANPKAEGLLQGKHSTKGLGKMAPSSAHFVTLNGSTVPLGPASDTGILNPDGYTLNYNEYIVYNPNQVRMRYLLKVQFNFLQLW
Kind of series: PARP2 enzymatic inhibitory activity, histone substrate, chemiluminescent ELISA. It is filed as biochemical. Conditions: histone substrate, 500 µM NAD+ not added; read-out: PARP2 IC50. How it is done: The PARP2 inhibitory activity assay was performed as in Experimental Method 1, except that PARP1 solution in step 2 of "3. Ribosylation reaction" was replaced with recombinant human PARP2 solution, and 500 µM NAD+ was not added in step 5 of the ribosylation reaction. Table 1. IC50 for inhibition of PARP1/2 enzymes by compounds of the present invention
On to `CNC(=O)c1ccc(N2CCN(Cc3ccc4c(c3F)NC(=O)N3C[C@@H](C)N=C43)CC2)c(F)n1` [Compound 132], for which the IC50 is 288 nM.
The same measure, in the same setting: with `CNC(=O)c1ccc(N2CCN(Cc3ccc4c(c3F)NC(=O)N3C[C@@H](C)N=C43)CC2)c(Cl)n1` [Compound 154] the figure was 1130 nM.

A further series addresses T1, Recombinant human PARP1 protein. Kind of series: biochemical.
Conditions: not given
Consider `CNC(=O)c1ccc(N2CCN(Cc3ccc4c(c3F)NC(=O)N3C[C@@H](C)N=C43)CC2)c(F)n1` [Compound 132], for which the half-maximal inhibitory concentration (IC50) came out at 1.5 nM.
Take `CNC(=O)c1ccc(N2CCN(Cc3ccc4c(c3F)NC(=O)N3CCCN=C43)CC2)c(Cl)n1` [Compound 141]: the IC50 stood at 1.3 nM.
The same measure, in the same setting: with `CNC(=O)c1ccc(N2CCN(Cc3ccc4c(c3F)NC(=O)N3C[C@@H](C)N=C43)CC2)c(Cl)n1` [Compound 154] the figure was 1.6 nM; with `CNC(=O)c1ccc(N2CCN(Cc3ccc4c(c3F)NC(=O)N3CC5(CC5)N=C43)CC2)c(Cl)n1` [Compound 158], 0.48 nM; with `CNC(=O)c1ccc(N2CCN(Cc3ccc4c(c3F)NC(=O)N3CC(F)(F)CN=C43)CC2)c(C)n1` [Compound 160], 0.59 nM.

System in a further series: not listed separately
Kind of series: Preliminary pharmacokinetic test in mice. It is filed as in vivo. Conditions: male, ICR, iv; mouse plasma, i.v. 1 mg/kg. How it is done:
1. Healthy ICR mice were administered the tested compounds intravenously (1 mg/kg) or by gavage (5 mg/kg). Nine male mice weighing 30-35 g for each route of administration were randomly divided into three groups of three mice each.
The mice were fasted for 12h before the test and allowed to drink water freely. The mice were fed 4h after the administration.
Intravenous and gavage administration: 0.25h, 0.5h, 1.0h, 2.0h, 3.0h, 4.0h, 6.0h, 8.0h and 24h after administration.
Blood was collected continuously, and 3 animals were collected at each time point. Plasma collection and processing: 30-40 µL of venous blood was collected from the mouse retroorbital venous plexus at the above set time points, placed in an EDTA-K2 test tube, centrifuged at 3500 rpm for 10 min, and plasma was separated and frozen in a -20 °C refrigerator.
The concentration of the compounds in mouse plasma was determined by LC/MS/MS. Pharmacokinetic parameters after administration were calculated using the […] of Phoenix 8.3 software (Pharsight, USA).
`CNC(=O)c1ccc(N2CCN(Cc3ccc4c(c3F)NC(=O)N3C[C@@H](C)N=C43)CC2)c(F)n1` [Compound 132] gave an AUC(0-t) of 6630 ng·h/mL, a clearance of 2.8 mL/min/kg and a half-life of 3 h.
`CNC(=O)c1ccc(N2CCN(Cc3ccc4c(c3F)NC(=O)N3CCCN=C43)CC2)c(Cl)n1` [Compound 141] gave an AUC(0-t) of 3020 ng·h/mL, a clearance of 5.5 mL/min/kg and a half-life of 1.2 h.
On to `CNC(=O)c1ccc(N2CCN(Cc3ccc4c(c3F)NC(=O)N3C[C@@H](C)N=C43)CC2)c(Cl)n1` [Compound 154], for which the AUC(0-t) is 7240 ng·h/mL, the clearance was 2.3 mL/min/kg and the half-life is 1.1 h.
For the compound `CNC(=O)c1ccc(N2CCN(Cc3ccc4c(c3F)NC(=O)N3CC5(CC5)N=C43)CC2)c(Cl)n1` [Compound 158], the area under the curve AUC(0-t) came to 3090 ng·h/mL, the clearance was 5.5 mL/min/kg and the half-life was 0.8 h.
The like results for `CNC(=O)c1ccc(N2CCN(Cc3ccc4c(c3F)NC(=O)N3CC(F)(F)CN=C43)CC2)c(C)n1` [Compound 160] were, in that order, 10500 ng·h/mL, 1.6 mL/min/kg and 0.86 h.

Staying with this series, now noted: male, ICR, plasma, oral; mouse, p.o. 5 mg/kg versus i.v. 1 mg/kg.
As for `CNC(=O)c1ccc(N2CCN(Cc3ccc4c(c3F)NC(=O)N3C[C@@H](C)N=C43)CC2)c(F)n1` [Compound 132], the bioavailability amounted to 98.7%.
Turning to `CNC(=O)c1ccc(N2CCN(Cc3ccc4c(c3F)NC(=O)N3CCCN=C43)CC2)c(Cl)n1` [Compound 141], the bioavailability was found to be 92.6%.
Still for that read-out and setting: with `CNC(=O)c1ccc(N2CCN(Cc3ccc4c(c3F)NC(=O)N3C[C@@H](C)N=C43)CC2)c(Cl)n1` [Compound 154] the figure was 62.1%.
On the same count and under the same terms, to `CNC(=O)c1ccc(N2CCN(Cc3ccc4c(c3F)NC(=O)N3CC5(CC5)N=C43)CC2)c(Cl)n1` [Compound 158] belongs 108%; to `CNC(=O)c1ccc(N2CCN(Cc3ccc4c(c3F)NC(=O)N3CC(F)(F)CN=C43)CC2)c(C)n1` [Compound 160], 70.7%.

Still in this series, the particulars now being: male, ICR, po; mouse plasma, p.o. 5 mg/kg.
In the case of `CNC(=O)c1ccc(N2CCN(Cc3ccc4c(c3F)NC(=O)N3C[C@@H](C)N=C43)CC2)c(F)n1` [Compound 132], the AUC(0-t) is 33100 ng·h/mL and the half-life is 4.4 h.
The like results for `CNC(=O)c1ccc(N2CCN(Cc3ccc4c(c3F)NC(=O)N3CCCN=C43)CC2)c(Cl)n1` [Compound 141] were, in that order, 14000 ng·h/mL and 2.5 h.
`CNC(=O)c1ccc(N2CCN(Cc3ccc4c(c3F)NC(=O)N3C[C@@H](C)N=C43)CC2)c(Cl)n1` [Compound 154] had an AUC(0-t) of 22500 ng·h/mL and a half-life of 2.3 h.
The like results for `CNC(=O)c1ccc(N2CCN(Cc3ccc4c(c3F)NC(=O)N3CC5(CC5)N=C43)CC2)c(Cl)n1` [Compound 158] were, in that order, 11000 ng·h/mL and 1 h.
Regarding `CNC(=O)c1ccc(N2CCN(Cc3ccc4c(c3F)NC(=O)N3CC(F)(F)CN=C43)CC2)c(C)n1` [Compound 160], the AUC(0-t) was found to be 26100 ng·h/mL and the half-life is 0.9 h.

Another series relates to MDR1 (P-gp). Kind of series: MDR1-MDCK II cell model of bidirectional permeability. It is filed as in vitro ADME. Conditions: dog, Efflux Ratio = Papp (B-A) / Papp (A-B), read-out: ER ratio. The procedure:
(§1) 2 µM of the test compound was added to the wells at the apical side or the basolateral side of the monolayer of cells and incubated for 2.5 h at 37.0°C in a 5.0% CO2 incubator. Cell monolayer integrity was determined by Lucifer yellowrejection assay. The buffer was removed from the apical side and basolateral side, and the concentration of the subject compounds was determined using LC-MS/MS. The concentration data were used to calculate the apparent permeabilitycoefficients of apical-to-basolateral (A-B) and basolateral-to-apical (B-A)side, and to calculate efflux ratio with the formula: Efflux Ratio = Papp (B-A) / Papp (A-B) Table 3. bidirectional permeability of MDR1-MDCK II cells for compounds of the present invention
Take `CNC(=O)c1ccc(N2CCN(Cc3ccc4nc(C)c(=O)[nH]c4c3F)CC2)c(F)n1` [AZD-9574]: the efflux ratio at 2.5 h, 2 µM stood at 1.
The same measure, in the same setting: with `CNC(=O)c1ccc(N2CCN(Cc3ccc4c(c3F)NC(=O)N3C[C@@H](C)N=C43)CC2)c(F)n1` [Compound 132] the figure was 2.1.
The same measure, in the same setting: with `CNC(=O)c1ccc(N2CCN(Cc3ccc4c(c3F)NC(=O)N3C[C@@H](C)N=C43)CC2)c(Cl)n1` [Compound 154] the figure was 1.64.

The next series relates to MDR1. Described as above. It is filed as in vitro ADME. Conditions: dog, apical-to-basolateral, 2 µM, 2.5 h. The procedure:
as §1
In turn, `CNC(=O)c1ccc(N2CCN(Cc3ccc4nc(C)c(=O)[nH]c4c3F)CC2)c(F)n1` [AZD-9574] returned a Papp A→B at 2.5 h, 2 µM of 19.4 ×10⁻⁶ cm/s.
The same measure, in the same setting: with `CNC(=O)c1ccc(N2CCN(Cc3ccc4c(c3F)NC(=O)N3C[C@@H](C)N=C43)CC2)c(F)n1` [Compound 132] the figure was 12.8 ×10⁻⁶ cm/s; with `CNC(=O)c1ccc(N2CCN(Cc3ccc4c(c3F)NC(=O)N3CCCN=C43)CC2)c(Cl)n1` [Compound 141], 16.2 ×10⁻⁶ cm/s.
On the same count and under the same terms, to `CNC(=O)c1ccc(N2CCN(Cc3ccc4c(c3F)NC(=O)N3C[C@@H](C)N=C43)CC2)c(Cl)n1` [Compound 154] belongs 13.9 ×10⁻⁶ cm/s; to `CNC(=O)c1ccc(N2CCN(Cc3ccc4c(c3F)NC(=O)N3CC5(CC5)N=C43)CC2)c(Cl)n1` [Compound 158], 14.7 ×10⁻⁶ cm/s; to `CNC(=O)c1ccc(N2CCN(Cc3ccc4c(c3F)NC(=O)N3CC(F)(F)CN=C43)CC2)c(C)n1` [Compound 160], 14.3 ×10⁻⁶ cm/s.

Staying with this series, now noted: dog, basolateral-to-apical, 2 µM, 2.5 h.
Compound `CNC(=O)c1ccc(N2CCN(Cc3ccc4nc(C)c(=O)[nH]c4c3F)CC2)c(F)n1` [AZD-9574] gave a Papp B→A at 2.5 h, 2 µM of 19.4 ×10⁻⁶ cm/s.
Still for that read-out and setting: to `CNC(=O)c1ccc(N2CCN(Cc3ccc4c(c3F)NC(=O)N3C[C@@H](C)N=C43)CC2)c(F)n1` [Compound 132] belongs 26.8 ×10⁻⁶ cm/s.
Same read-out and setting: with `CNC(=O)c1ccc(N2CCN(Cc3ccc4c(c3F)NC(=O)N3CCCN=C43)CC2)c(Cl)n1` [Compound 141] the figure was 23.1 ×10⁻⁶ cm/s.
Still for that read-out and setting: to `CNC(=O)c1ccc(N2CCN(Cc3ccc4c(c3F)NC(=O)N3C[C@@H](C)N=C43)CC2)c(Cl)n1` [Compound 154] belongs 22.8 ×10⁻⁶ cm/s; to `CNC(=O)c1ccc(N2CCN(Cc3ccc4c(c3F)NC(=O)N3CC5(CC5)N=C43)CC2)c(Cl)n1` [Compound 158], 14.1 ×10⁻⁶ cm/s.
Take `CNC(=O)c1ccc(N2CCN(Cc3ccc4c(c3F)NC(=O)N3CC(F)(F)CN=C43)CC2)c(C)n1` [Compound 160]: the Papp B→A at 2.5 h, 2 µM came out at 8.78 ×10⁻⁶ cm/s.

The subject of the next series is MDA-MB-436 cells. The series is described as follows: MDA-MB-436 cell proliferation inhibition test (CellTiter-Glo, 7 days). It is filed as cell-based. Conditions: Homo sapiens, MDA-MB-436, 168 h, 7 days incubation. The procedure:
Human breast cancer MDA-MB-436 (purchased from ATCC) cells were cultured in DMEM medium (supplemented with 10% fetal bovine serum with 1% dual antibody) at 37 °C, 5% CO2. The cells were taken from the logarithmic growth phase, digested and prepare cell suspension witha certain concentration, which was inoculated into 96-well plates. 100 µL of cell suspension was added to each well of the 96-well plates, incubated overnight, then different concentrations of compounds were added, and the cells were incubated in the cell culture incubator for 7 days. At the end of incubation, 50 µL of CellTiter-Glo reagent was added to each well, mixed with a microplate and shaked for 2 min, and left at rt for 60 min, then the fluorescence value was read with a Spark® multimode microplate reader. […] Table 2. proliferation inhibitory activity of compounds of the present invention on MDA-MB-436 cells
(In general: Cellular ATP, detected with luciferase, serves as a proxy for viable cell number.)
The compound `CNC(=O)c1ccc(N2CCN(Cc3ccc4nc(C)c(=O)[nH]c4c3F)CC2)c(F)n1` [AZD-9574] yielded an IC50 of 15.7 nM.
Still for that read-out and setting: with `CNC(=O)c1ccc(N2CCN(Cc3ccc4c(c3F)NC(=O)N3C[C@@H](C)N=C43)CC2)c(F)n1` [Compound 132] the figure was 12.1 nM; with `CNC(=O)c1ccc(N2CCN(Cc3ccc4c(c3F)NC(=O)N3CCCN=C43)CC2)c(Cl)n1` [Compound 141], 5.8 nM.
Still for that read-out and setting: to `CNC(=O)c1ccc(N2CCN(Cc3ccc4c(c3F)NC(=O)N3C[C@@H](C)N=C43)CC2)c(Cl)n1` [Compound 154] belongs 0.33 nM.
In the case of `CNC(=O)c1ccc(N2CCN(Cc3ccc4c(c3F)NC(=O)N3CC5(CC5)N=C43)CC2)c(Cl)n1` [Compound 158], inhibition was half-maximal at 2.2 nM (IC50).
Same read-out and setting: with `CNC(=O)c1ccc(N2CCN(Cc3ccc4c(c3F)NC(=O)N3CC(F)(F)CN=C43)CC2)c(C)n1` [Compound 160] the figure was 5.7 nM.

The record behind these values is EP4617273A1, “FUSED TRICYCLIC PARP1 INHIBITOR, PREPARATION METHOD THEREFOR, AND USE THEREOF” (Haihe Biopharma Co., Ltd., priority 2022, dated 2024).
